Assay results: PubChem BioAssay (NCI)
Several values for one entry are separate records, joined by “and”; a condition that tells them apart may be missing. Equal entries are not always repeated.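 Dose response: 5 concentrations. Exposure: 48 h. Format: 96-well plates. Endpoint: linear interpolation; highest concentration if not reached. GI50 marks 50% less growth. Definition used: TGI = concentration required for complete inhibition of growth.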

Legend:
Assay in all cases: inhibition of tumour cell growth, NCI panel, 48 h
ACHN renal = tested on: ACHN renal
HCT-15 colon = tested on: HCT-15 colon
HOP-92 NSCLC = tested on: HOP-92 NSCLC
NCI-H23 lung = tested on: NCI-H23 lung
OVCAR-5 ovarian = tested on: OVCAR-5 ovarian
PC-3 prostate = tested on: PC-3 prostate
SF-295 CNS = tested on: SF-295 CNS
SR leukemia = tested on: SR leukemia
SW-620 colon = tested on: SW-620 colon
UACC-62 melanoma = tested on: UACC-62 melanoma

SMILES	TGI (ACHN renal)	TGI (HCT-15 colon)	TGI (HOP-92 NSCLC)	TGI (NCI-H23 lung)	TGI (OVCAR-5 ovarian)	TGI (PC-3 prostate) [µM]	TGI (SF-295 CNS)	TGI (SR leukemia)	TGI (SW-620 colon)	TGI (UACC-62 melanoma) [µM]	GI50 (ACHN renal)	GI50 (HCT-15 colon)	GI50 (HOP-92 NSCLC)	GI50 (NCI-H23 lung)	GI50 (OVCAR-5 ovarian)	GI50 (PC-3 prostate)	GI50 (SF-295 CNS)	GI50 (SR leukemia)	GI50 (SW-620 colon)	GI50 (UACC-62 melanoma) [µM]
CC(=O)OC1CC[C@@]2(C)C(CC[C@]3(C)C2CC=C2[C@@H]4C(C)[C@H](C)CCC4(C)CCC23C)[C@@]1(C)C(=O)O (some centres undefined)	36.8 µM	43.2 µM	49.9 µM	51.6 µM	33.3 µM	31.8	35.5 µM	70.6 µM	55.5 µM	35.3										
CC(=O)N(O)Cc1ccccc1	> 100 µM	> 100 µM	> 100 µM	> 100 µM	> 100 µM		> 100 µM	> 100 µM	> 100 µM	> 100										
Cc1cccc(NC(=O)/C=C/c2ccc([N+](=O)[O-])cc2)c1	28.8 µM	> 56.7 µM	50.7 µM	31.7 µM	> 57 µM	28.6	> 58 µM	> 24.5 µM	> 60.2 µM	> 58.5										
Cn1c(=S)c2[nH]c(SCCN3C(=O)c4ccccc4C3=O)nc2n(C)c1=O	> 100 µM	> 100 µM	> 100 µM	> 100 µM	> 100 µM	> 100	> 100 µM	> 100 µM	> 100 µM	> 100										
O=C(C[P+](c1ccccc1)(c1ccccc1)c1ccccc1)C[P+](c1ccccc1)(c1ccccc1)c1ccccc1	0.393 µM	1.6 µM	0.294 µM	0.888 µM	0.832 µM	2.51	2.98 µM	3.89 µM	0.816 µM	0.865	0.144 µM	0.241 µM	0.0696 µM	0.253 µM	0.263 µM	0.938 µM	1.46 µM	0.31 µM	0.242 µM	0.256
O=S(=O)(Nc1ccc(F)c(Cl)c1)c1ccc(-c2cnc(C3CC3)o2)cc1	12 µM	11.2 µM	3.94 µM	11.3 µM	13.4 µM	12.3	1.49 µM	> 42.3 µM	13.9 µM	5.51	0.533 µM	0.113 µM	0.367 µM	0.593 µM	0.798 µM	0.322 µM	0.199 µM	0.0838 µM	0.159 µM	0.183
COc1cc(/C=C/c2cc(/C=C/c3ccc(O)c(OC)c3)n(C(=O)Nc3ccc(Cl)cc3)n2)ccc1O	11.4 µM	11.6 µM	7.04 µM	2.36 µM	7.52 µM	5.78	7.86 µM		2.73 µM	2.24	0.52 µM	0.43 µM	2.14 µM	0.494 µM	2.47 µM	0.497 µM	1.5 µM	0.106 µM	0.49 µM	0.551
CN1CCN(CCOc2cc(OC3CCOCC3)c3c(Nc4c(Cl)ccc5c4OCO5)ncnc3c2)CC1	14 µM and > 10 µM	26.6 µM and > 10 µM	11.4 µM and 5.64 µM	57.1 µM and > 10 µM	23.9 µM and > 10 µM	> 100	25.3 µM and > 10 µM	37.4 µM and > 10 µM	33.6 µM and > 10 µM	28.6	0.348 µM and 0.395 µM	4.18 µM and 3.26 µM	0.679 µM and 0.139 µM	12.2 µM and > 10 µM	1.13 µM and 1.35 µM	19.3 µM and > 10 µM	5.83 µM and > 10 µM	9.63 µM and 5.98 µM	17.5 µM and > 10 µM	14.8
COc1cccc(C2C3=C(COC3=O)N(CCO)c3cc4c(cc32)OCO4)c1 (centres undefined)	> 50 µM	> 50 µM		> 14.2 µM	> 50 µM	> 50		0.227 µM	> 50 µM	> 50	3.92 µM	1.02 µM		0.589 µM	2.03 µM	0.265 µM	0.157 µM	0.0795 µM	0.229 µM	
COc1cc(C2C3=C(COC3=O)N(CCO)c3cc4c(cc32)OCO4)cc(OC)c1O (centres undefined)	> 50 µM	> 50 µM		> 38 µM	> 50 µM	> 50	> 14.6 µM	> 11.9 µM	> 50 µM	> 50	> 13.5 µM	8.01 µM		1.84 µM	23.1 µM	1.54 µM	1.47 µM	0.611 µM	1.71 µM	
COc1ccc(C2C=C(c3ccc(Cl)cc3)N=C3SC=C(C)N32)c(Br)c1 (centres undefined)	17.4 µM	12.2 µM	22 µM	28.4 µM	11.2 µM	43.3		14.9 µM	10.3 µM	15.7	3.64 µM	2.42 µM	3.45 µM	4.43 µM	3.12 µM	4.67 µM		2.06 µM	2.85 µM	3.8
Cc1cc(Nc2cc(N3CCN(C)CC3)nc(Sc3ccc(NC(=O)C4CC4)cc3)n2)n[nH]1	> 10 µM	> 10 µM	5.77 µM	> 10 µM		> 10	> 10 µM	> 10 µM	> 10 µM	> 10	> 10 µM	5.38 µM	0.989 µM	3.19 µM		4.24 µM	1.28 µM	0.0594 µM	1.08 µM	1.53
O=C1c2ccccc2C(=O)c2c(NCC3CO3)ccc(NCC3CO3)c21 (centres undefined)	2.62 µM	> 22.5 µM	38 µM	8.71 µM	> 65.8 µM	9.61	23.7 µM	> 27.2 µM	6.04 µM											
Oc1[nH]c2ccccc2c1N=Nc1c(F)c(F)c(F)c(F)c1F	36.8 µM	> 100 µM		> 100 µM	> 100 µM	> 100	> 100 µM	14.4 µM	> 72.8 µM	> 100										
COC1C2c3cc4c(cc3CC(C#N)(c3ccccc32)N1C(=O)c1ccccc1)OCO4 (centres undefined)	> 100 µM	> 100 µM	> 100 µM	> 100 µM	> 100 µM		> 100 µM	> 100 µM	> 100 µM	> 100										
